Source: paper PMC8294059, “Identification and Immune Assessment of T Cell Epitopes in Five Plasmodium falciparum Blood Stage Antigens to Facilitate Vaccine Candidate Selection and Optimization” (Frontiers in Immunology, 2021)
Where a SMILES comes first, the peptide text is derived from it.

Biological target: HLA-A*0201 (Homo sapiens, UniProt P04439, D140Y/D185E/D98H/E176V/E277Q/G131W/G231S/I119V/I121R/I166T/I218V/L300P/L318F/N151K/N90K/P208A/P217A/Q86G/Q94H/R138H/R169H/T345S)
Test: In vitro class I HLA binding assay (fluorescence polarization competition)
Conditions: allele A*0201; fluorescence polarization competition
Protocol: (§1) A cell-free class I HLA binding assay that allows for in vitro quantification of peptide-HLA binding affinity in a competition format was used. In this assay, a fluorescently labeled, high binding, control peptide is loaded onto 384-well ½-area plates along with unlabeled experimental peptides. To remove endogenous peptides and render the HLA A and B molecules receptive to binding, HLA is heated at 53°C for 15 minutes and immediately added to the assay. The mixture is then allowed to stand for three days. Once the mixture has reached steady equilibrium (at 72 hours), displacement of the high binding control peptide is measured through fluorescence polarization. Binding of experimental peptides is expressed as the percent inhibition of the labeled control peptide (experimental fluorescence / control fluorescence, multiplied by 100). The percent inhibition values for each experimental peptide (across a range of molar concentrations) are used to calculate the concentration which inhibits 50% of the labeled control peptide’s specific binding. This value is referred to as the peptide’s IC50.

Row | Compound | IC50 (nM), in vitro HLA binding affinity
1 | DMSNEYSLFI [RH5_461] | Non-Binder

Biological target: HLA-A*0101 (Homo sapiens, UniProt P04439, A114D/A174V/A182V/D101N/D185E/E176A/E190D/L180R/Q94H/R68K/S129P/T187R/V100A/V91M/W191G)
Test: biochemical
Assay type: binding
Conditions: allele A*0101; cell-free competition, fluorescence polarization at 72 hours; Non-binder = no dose-dependent inhibition; read-out: IC50
Protocol: as §1

Row | Compound | IC50
2 | CC[C@H](C)[C@H](NC(=O)[C@H](CC(C)C)NC(=O)[C@H](CO)NC(=O)[C@H](CO)NC(=O)[C@@H](N)[C@@H](C)O)C(=O)N[C@@H](CCCCN)C(=O)N[C@@H](CCC(N)=O)C(=O)N[C@@H](CC(N)=O)C(=O)N[C@@H](CCCCN)C(=O)N[C@@H](Cc1ccc(O)cc1)C(=O)O [EBA175_0114] (H-TSSLIKQNKY-OH) | 37100 nM
3 | CC[C@H](C)[C@H](NC(=O)[C@H](CCCNC(=N)N)NC(=O)[C@H](CCC(=O)O)NC(=O)[C@@H](NC(=O)[C@@H](N)[C@@H](C)O)[C@@H](C)O)C(=O)N[C@@H](CO)C(=O)N[C@@H](CC(N)=O)C(=O)N[C@@H](CC(N)=O)C(=O)N[C@@H](CCC(=O)O)C(=O)N[C@@H](Cc1ccc(O)cc1)C(=O)O [EBA175_1084] (H-TTERISNNEY-OH) | 904 nM
4 | C[C@@H](O)[C@H](NC(=O)[C@@H](N)Cc1ccccc1)C(=O)N[C@@H](Cc1ccc(O)cc1)C(=O)N[C@@H](CC(=O)O)C(=O)N[C@@H](CO)C(=O)N[C@@H](CCC(=O)O)C(=O)N[C@@H](CCC(=O)O)C(=O)N[C@@H](Cc1ccc(O)cc1)C(=O)N[C@@H](Cc1ccc(O)cc1)C(=O)O [EBA175_1392] (H-FTYDSEEYY-OH) | 136 nM
5 | CC(C)C[C@H](NC(=O)[C@H](CCCCN)NC(=O)[C@H](CC(=O)O)NC(=O)[C@H](CC(C)C)NC(=O)[C@H](CC(N)=O)NC(=O)[C@H](CC(=O)O)NC(=O)[C@@H](NC(=O)[C@@H](N)C(C)C)[C@@H](C)O)C(=O)N[C@@H](CO)C(=O)N[C@@H](CC(N)=O)C(=O)O [EBA175_1465] (H-VTDNLDKLSN-OH) | 188000 nM

Same assay, conditions: allele A*0101; fluorescence polarization competition; read-out: IC50 (nM), in vitro HLA binding affinity

Row | Compound | IC50
6 | N=C(N)NCCC[C@H](NC(=O)[C@@H](N)Cc1c[nH]cn1)C(=O)N[C@@H](CCC(=O)O)C(=O)N[C@@H](Cc1c[nH]cn1)C(=O)N1CCC[C@H]1C(=O)N[C@@H](CCCCN)C(=O)N[C@@H](CCC(=O)O)C(=O)N[C@@H](Cc1ccc(O)cc1)C(=O)N[C@@H](CCC(=O)O)C(=O)N[C@@H](Cc1ccc(O)cc1)C(=O)O [AMA1_044] (H-HREHPKEYEY-OH) | 11100 nM
7 | CC[C@H](C)[C@H](NC(=O)[C@H](CCC(=O)O)NC(=O)[C@@H](NC(=O)[C@@H](N)CO)[C@@H](C)CC)C(=O)N[C@H](C(=O)N[C@@H](CCC(=O)O)C(=O)N[C@@H](CCCNC(=N)N)C(=O)N[C@@H](CO)C(=O)N[C@@H](CC(N)=O)C(=O)N[C@@H](Cc1ccc(O)cc1)C(=O)O)C(C)C [AMA1_096] (H-SIEIVERSNY-OH) | 12100 nM
8 | CC(C)C[C@H](N)C(=O)N[C@H](C(=O)N1CCC[C@H]1C(=O)N[C@H](C(=O)N[C@@H](C)C(=O)N[C@H](C(=O)NCC(=O)N[C@@H](CC(N)=O)C(=O)N[C@@H](CCC(N)=O)C(=O)N[C@@H](Cc1ccc(O)cc1)C(=O)O)[C@@H](C)O)C(C)C)[C@@H](C)O [AMA1_166] (H-LTPVATGNQY-OH) | 2560 nM
9 | CC[C@H](C)[C@H](N)C(=O)N1CCC[C@H]1C(=O)N[C@@H](CC(=O)O)C(=O)N[C@@H](CC(N)=O)C(=O)N[C@@H](CC(=O)O)C(=O)N[C@@H](CCCCN)C(=O)N[C@@H](CC(N)=O)C(=O)N[C@@H](CO)C(=O)N[C@@H](CC(N)=O)C(=O)N[C@@H](Cc1ccc(O)cc1)C(=O)O [AMA1_225] (H-IPDNDKNSNY-OH) | 14700 nM
10 | C[C@H](N)C(=O)N[C@@H](CO)C(=O)N[C@@H](CC(=O)O)C(=O)N[C@@H](CCC(N)=O)C(=O)N1CCC[C@H]1C(=O)N[C@@H](CCCCN)C(=O)N[C@@H](CCC(N)=O)C(=O)N[C@@H](Cc1ccc(O)cc1)C(=O)N[C@@H](CCC(=O)O)C(=O)N[C@@H](CCC(N)=O)C(=O)O [AMA1_346] (H-ASDQPKQYEQ-OH) | 126000 nM
11 | CC[C@H](C)[C@H](NC(=O)[C@H](Cc1c[nH]cn1)NC(=O)[C@@H](NC(=O)[C@H](CCC(=O)O)NC(=O)[C@H](CC(=O)O)NC(=O)[C@H](CCC(=O)O)NC(=O)[C@H](CCC(=O)O)NC(=O)CN)[C@@H](C)O)C(=O)N[C@@H](Cc1ccc(O)cc1)C(=O)O [CYRPA_070] (H-GEEDETHIY-OH) | 261000 nM
12 | CC(C)C[C@H](NC(=O)[C@@H](NC(=O)[C@H](CO)NC(=O)[C@@H](NC(=O)[C@@H](N)CC(=O)O)C(C)C)[C@@H](C)O)C(=O)N[C@@H](CC(N)=O)C(=O)N[C@@H](CC(=O)O)C(=O)N[C@@H](CCC(=O)O)C(=O)N[C@@H](Cc1ccc(O)cc1)C(=O)O [CYRPA_282] (H-DVSTLNDEY-OH) | 52200 nM
13 | CC[C@H](C)[C@H](NC(=O)[C@H](Cc1ccc(O)cc1)NC(=O)[C@H](CCC(=O)O)NC(=O)[C@H](CC(=O)O)NC(=O)[C@H](CC(N)=O)NC(=O)[C@@H](N)CC(C)C)C(=O)N[C@H](C(=O)N[C@@H](CO)C(=O)N[C@@H](Cc1ccc(O)cc1)C(=O)O)C(C)C [CYRPA_286] (H-LNDEYIVSY-OH) | 28100 nM
14 | CC[C@H](C)[C@H](NC(=O)[C@H](CO)NC(=O)[C@@H](N)CC(N)=O)C(=O)N[C@@H](CC(C)C)C(=O)N[C@H](C(=O)N[C@@H](CCCCN)C(=O)N1CCC[C@H]1C(=O)N[C@@H](CCC(=O)O)C(=O)N[C@@H](CCCCN)C(=O)N[C@@H](Cc1ccc(O)cc1)C(=O)O)[C@@H](C)CC [CYRPA_311] (H-NSILIKPEKY-OH) | 109000 nM
15 | CC[C@H](C)[C@H](NC(=O)[C@H](CC(=O)O)NC(=O)[C@H](CC(=O)O)NC(=O)[C@H](CCCCN)NC(=O)[C@H](CCC(=O)O)NC(=O)[C@H](CCC(=O)O)NC(=O)[C@H](CCC(=O)O)NC(=O)[C@@H](NC(=O)[C@@H](N)CO)[C@@H](C)O)C(=O)N[C@@H](CCCCN)C(=O)O [RH5_46] (H-STEEEKDDIK-OH) | 6830 nM
16 | CC(C)C[C@H](NC(=O)CNC(=O)[C@H](CC(=O)O)NC(=O)[C@H](CC(N)=O)NC(=O)[C@@H](NC(=O)[C@H](CC(N)=O)NC(=O)[C@@H](NC(=O)[C@@H](N)CC(N)=O)[C@@H](C)O)C(C)C)C(=O)N[C@@H](CCCCN)C(=O)N[C@@H](Cc1ccc(O)cc1)C(=O)O [RH5_88] (H-NTNVNDGLKY-OH) | 4120 nM
17 | CC(C)[C@H](NC(=O)[C@H](CC(N)=O)NC(=O)[C@H](CCCCN)NC(=O)[C@H](Cc1ccc(O)cc1)NC(=O)[C@H](CC(=O)O)NC(=O)[C@H](CCC(=O)O)NC(=O)[C@H](CC(N)=O)NC(=O)[C@@H](N)CC(N)=O)C(=O)N[C@@H](CC(=O)O)C(=O)N[C@@H](Cc1ccc(O)cc1)C(=O)O [RH5_130] (H-NNEDYKNVDY-OH) | 7990 nM
18 | CC(C)[C@H](NC(=O)[C@H](CC(N)=O)NC(=O)[C@H](CCCCN)NC(=O)[C@H](Cc1ccc(O)cc1)NC(=O)[C@H](CC(=O)O)NC(=O)[C@H](CCC(=O)O)NC(=O)[C@@H](N)CC(N)=O)C(=O)N[C@@H](CC(=O)O)C(=O)N[C@@H](Cc1ccc(O)cc1)C(=O)O [RH5_131] (H-NEDYKNVDY-OH) | 8920 nM
19 | CC[C@H](C)[C@H](NC(=O)[C@@H](NC(=O)[C@H](Cc1ccccc1)NC(=O)[C@H](CC(=O)O)NC(=O)[C@H](CC(C)C)NC(=O)[C@@H](N)Cc1c[nH]cn1)C(C)C)C(=O)N[C@H](C(=O)N1CCC[C@H]1C(=O)N[C@@H](Cc1c[nH]cn1)C(=O)N[C@@H](Cc1ccc(O)cc1)C(=O)O)[C@@H](C)CC [RH5_170] (H-HLDFVIIPHY-OH) | 118000 nM
20 | N=C(N)NCCC[C@H](NC(=O)[C@H](Cc1ccc(O)cc1)NC(=O)[C@H](CO)NC(=O)[C@H](CC(=O)O)NC(=O)[C@H](CC(=O)O)NC(=O)[C@H](CC(N)=O)NC(=O)[C@H](CCCCN)NC(=O)[C@@H](N)CC(N)=O)C(=O)N[C@@H](Cc1ccc(O)cc1)C(=O)O [RH5_246] (H-NKNDDSYRY-OH) | 6680 nM
